From patent US20220088031A1, “METHODS AND COMPOSITIONS FOR TREATING RESISTANT AND RECURRENT FORMS OF CANCER” (Health Research, Inc., priority 2019, published 2022)

How the values were obtained:
Format in all cases: cell-based, human
E006AA cells [1] = test: Cell death quantification, Trypan blue exclusion assay
Method: Cell viability assay: PCa cells (5×10^4 cells/well) were seeded on 6-well cell culture plates and incubated with DOC (1-20 nM) for 24 hrs. Floating and attached cells were collected using trypsinization. Live and dead cells were counted under a light microscope using a trypan blue exclusion assay.

LNCaP, DU145, PC-3 cells = test: Clonogenic assay; details: exposure of DOC; CA PCa cells
Method: (§1) Clonogenic assay: PCa cells were seeded in each well of 6 well cell culture plates. Cells were treated and plates were incubated in a CO2 cell culture incubator for 6 more days. Colonies were fixed in 10% formalin first and stained with 0.5% crystal violet solution. Plates were dried and pictures were captured using a Gel documentation system and Coomassie blue filter (Bio Rad, Hercules, Calif.).

E006AA cells [2] = test: Clonogenic assay; details: exposure of DOC; AA PCa cells
Method: as §1

E006AA cells [3] = test: Caspase-3 (DEVDase) activity assay; details: DOC 24 hrs; AA PCa cells compared to CA PCa cells
Method: Caspase-3 (DEVDase) activity assay: PCa cell lysates prepared in NP40 lysis buffer were incubated with DEVD-AFC (caspase-3 substrate) at 37° C. for 90 min in caspase activity assay buffer (50 mM HEPES pH 7.4, 150 mM NaCl, 1% CHAPS, 1 mM EDTA, 1 mM DTT, 50% glycerol). Fluorescence intensity was detected using a Synergy microplate reader at excitation and emission wavelengths of 400 nm and 508 nm, respectively. Arbitrary fluorescence units were normalized with protein content of cell lysates and represented as fold change compared to control groups.

LNCaP cells [4] = test: Immunoblot analysis of CC and Drp1 in cytosolic and mitochondrial fractions; details: CA PCa cells
Method: Subcellular fractionation for the preparation of cytosolic and mitochondrial fractions: Cells were seeded on 15 cm cell culture plates followed by treatment with various compounds for the preparation of cytosolic and mitochondrial fractions as described. Cells were harvested via gentle scraping, washed twice with ice cold 1×PBS, and resuspended in homogenization buffer (20 mM HEPES, pH 7.4; 10 mM KCl; 1.5 mM MgCl2; 1 mM EDTA; 1 mM EGTA; 250 mM sucrose) supplemented with freshly added 1× protease inhibitor cocktail and 1 mM DTT. Cells were incubated in homogenization buffer for 30 min in ice and homogenized using a dounce homogenizer (˜25 strokes using pestle A). Cell homogenates were pre-cleared of unbroken cells and debris using centrifugation at 1000 g for 10 min. The supernatant was collected in new tubes and centrifuged at 12000 rpm for 20 min to obtain a mitochondrial pellet, which was washed 3 times with homogenization buffer and lysed in NP40 buffer, and stored as the mitochondrial fraction. […]
Immunoblotting: Immunoblotting was performed as described previously. […] Protein content was quantified using a micro BCA protein estimation kit (Thermo Scientific, Waltham, Mass.; Cat #23235). […] After washing with PBS-T, proteins were detected using Clarity chemiluminescent reagent (BioRad, Hercules, Calif.; Cat #1705061) and X-Ray films (ASI, Fort Lauderdale, Fla.; Cat #XR1570). […]

LNCaP cells [5] = test: Cell cycle analysis, PI staining; details: DOC 24 hrs; CA PCa cells
Method: (§2) Cell cycle analysis: Cell cycle phases in LNCaP and E006AA cells were analyzed using Propidium Iodide (PI) staining. Cells were treated with DOC for 24 hrs, fixed in 70% ethanol, stained with PI staining solution (0.1% sodium citrate, 0.2 mg/ml RNAse, 0.05 mg/ml propidium iodide, 0.2% NP 40, 1N HCl), and analyzed using flow cytometry. Data were analyzed using FACS-DIVA software and represented as % cells in each cell cycle phase.

E006AA cells [6] = test: Cell cycle analysis, PI staining; details: DOC 24 hrs; AA PCa cells
Method: as §2

E006AA cells [7] = test: Immunoblot analysis of CC in cytosolic and mitochondrial fractions; details: DOC 24 hrs; AA PCa cells
Method: Subcellular fractionation for the preparation of cytosolic and mitochondrial fractions: Cells were seeded on 15 cm cell culture plates followed by treatment with various compounds for the preparation of cytosolic and mitochondrial fractions as described. Cells were harvested via gentle scraping, washed twice with ice cold 1×PBS, and resuspended in homogenization buffer (20 mM HEPES, pH 7.4; 10 mM KCl; 1.5 mM MgCl2; 1 mM EDTA; 1 mM EGTA; 250 mM sucrose) supplemented with freshly added 1× protease inhibitor cocktail and 1 mM DTT. Cells were incubated in homogenization buffer for 30 min in ice and homogenized using a dounce homogenizer (˜25 strokes using pestle A). Cell homogenates were pre-cleared of unbroken cells and debris using centrifugation at 1000 g for 10 min. The supernatant was collected in new tubes and centrifuged at 12000 rpm for 20 min to obtain a mitochondrial pellet, which was washed 3 times with homogenization buffer and lysed in NP40 buffer, and stored as the mitochondrial fraction. The supernatant was ultra-centrifuged to obtain purified cytosol.
(§3) Immunoblotting: Immunoblotting was performed as described previously. Protein lysates were prepared using a lysis in NP-40 buffer (50 mM Tris-HCl pH 7.4, 150 mM NaCl, 1 mM EDTA, 1 mM EGTA, 1% NP-40) supplemented with protease and phosphatase inhibitor cocktail. Protein content was quantified using a micro BCA protein estimation kit (Thermo Scientific, Waltham, Mass.; Cat #23235). Protein samples were resolved on 4-20% Criterion gels, transferred on nitrocellulose membranes (BioRad, Hercules, Calif.) and subjected to immunoblotting. Membranes were blocked in 5% fat free dry milk (Blotto, Santa Cruz, Dallas, Tex.; Cat #sc-2324) prepared in PBS-T (Tween-20) and incubated overnight in primary antibodies (1:1000 dilution) at 4° C. with continuous shaking. After washing with PBS-T, membranes were incubated in HRP conjugated anti-mouse or anti-rabbit secondary antibody at room temperature for 1 hr. After washing with PBS-T, proteins were detected using Clarity chemiluminescent reagent (BioRad, Hercules, Calif.; Cat #1705061) and X-Ray films (ASI, Fort Lauderdale, Fla.; Cat #XR1570). Membranes were stripped using stripping buffer and probed with HRP conjugated beta-actin antibody to ensure equal loading of proteins.

[8] = tested on: p-Drp1^S616 in LNCaP cells; test: Immunoblot of p-Akt^S473 and p-Drp1^S616 after AKT inhibitor; details: Wort 1 μM
Method: as §3

O=C(O)C(=O)CBr [3-BrPA, 3-bromopyruvate] was tested, and the cell death (E006AA cells [1]; in combination with DOC (24 hrs)) was “induced dose-dependent cell death”.

In the case of CC(=O)O[C@@]12CO[C@@H]1C[C@H](O)[C@@]1(C)C(=O)[C@H](O)C3=C(C)[C@@H](OC(=O)[C@H](O)[C@@H](NC(=O)OC(C)(C)C)c4ccccc4)C[C@@](O)([C@@H](OC(=O)c4ccccc4)[C@H]21)C3(C)C [DOC, Docetaxel], the “colony forming ability (CFA)” value (LNCaP, DU145, PC-3 cells) is reported as “abolished CFA”, the “colony forming ability (CFA)” value (E006AA cells [2]) is reported as “not AA PCa” and the DOC-induced caspase activation (E006AA cells [3]) is reported as “reduced in various AA PCa cells compared to CA PCa cells”. For the same compound, the DOC-induced cell death (E006AA cells [1]; DOC 24 hrs, AA PCa cells compared to CA PCa cells) was “reduced in various AA PCa cells compared to CA PCa cells”, the “CC expression and release from mitochondria to cytosol” value (LNCaP cells [4]; DOC 24 hrs) was “induced CC expression and release from mitochondria to the cytosolic compartment” and the Drp1 localization (LNCaP cells [4]; in response to DOC) was “translocated to mitochondria”. For the same compound, the “effect on the cell cycle” value (LNCaP cells [5]) was “cell cycle arrest at G2/M phase”, the “effect on the cell cycle” value (E006AA cells [6]) was “cell cycle arrest at G2/M phase” and the “CC expression and release from mitochondria to cytosol” value (E006AA cells [7]) was “not in AA PCa cells”.

For COC[C@H]1OC(=O)c2coc3c2[C@@]1(C)C1=C(C3=O)[C@@H]2CCC(=O)[C@@]2(C)C[C@H]1OC(C)=O [wortmanin], the “Drp1 phosphorylation at S616” value [8] was “Inhibition of Drp1 phosphorylation at S616”.
